Measured values from PubChem BioAssay AID248 (DTP/NCI, 2004).
Several values for one entry are separate records, joined by “and”; a condition that tells them apart may be missing. Identical values can stand only once. Inconclusive results and toxic doses are left out. Cut-off read from the data, not from the text of the source: active = T/C of 150% or more; inactive = T/C below 125%.

System: L1210 leukemia ip in BDF1 mice, survival T/C
Experiment: NCI In Vivo Anticancer Drug Screen. Data for tumor model L1210 Leukemia (intraperitoneal) in B6D2F1 (BDF1) mice
Details: endpoint: mean survival time, higher = longer survival
Method in brief: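 Transplantable tumor model; survival measured in treated vs vehicle control mice. Value = treated/control.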

[1] = dose: 100.0 mg/kg/injection, schedule: Q01DX001 (ip), vehicle: saline
[2] = dose: 200.0 mg/kg/injection, schedule: Q01DX001 (ip), vehicle: saline
[3] = dose: 400.0 mg/kg/injection, schedule: Q01DX001 (ip), vehicle: saline

Measured: T/C

O=C1NC(CCO)C(=O)NC1CCO (stereo not given)
inactive: dose: 50.0 mg/kg/injection, schedule: Q01DX009 (ip), vehicle: saline 97 % of control | [1] 100 % of control | dose: 100.0 mg/kg/injection, schedule: Q01DX009 (ip), vehicle: saline 112 % of control | [2] 97 % of control | dose: 200.0 mg/kg/injection, schedule: Q01DX009 (ip), vehicle: saline 104 % of control | [3] 100 % of control

CC12C=CC3(CCC4C(C)(C)C(O[N+](=O)[O-])C(=O)CC4(C)C3CC1=O)C2 (stereo not given)
inactive: dose: 75.0 mg/kg/injection, schedule: Q01DX009 (ip), vehicle: Klucel (hydroxypropylcellulose) (HPC) 108 % of control | dose: 100.0 mg/kg/injection, schedule: Q01DX001 (ip), vehicle: Klucel (hydroxypropylcellulose) (HPC) 92 % of control | dose: 150.0 mg/kg/injection, schedule: Q01DX009 (ip), vehicle: Klucel (hydroxypropylcellulose) (HPC) 100 % of control | dose: 200.0 mg/kg/injection, schedule: Q01DX001 (ip), vehicle: Klucel (hydroxypropylcellulose) (HPC) 95 % of control | dose: 300.0 mg/kg/injection, schedule: Q01DX009 (ip), vehicle: Klucel (hydroxypropylcellulose) (HPC) 98 % of control | dose: 400.0 mg/kg/injection, schedule: Q01DX001 (ip), vehicle: Klucel (hydroxypropylcellulose) (HPC) 88 % of control

c1ccc(N2CN(c3ccccc3)N(c3ccccc3)CN2c2ccccc2)cc1
inactive: dose: 100.0 mg/kg/injection, schedule: Q01DX001 (ip), vehicle: other 92 % of control | dose: 200.0 mg/kg/injection, schedule: Q01DX001 (ip), vehicle: other 89 % of control

Cc1cc(=O)[nH]cn1
inactive: dose: 100.0 mg/kg/injection, schedule: Q04DX003 (ip), vehicle: saline 100 % of control | dose: 200.0 mg/kg/injection, schedule: Q04DX003 (ip), vehicle: saline 112 % of control | dose: 400.0 mg/kg/injection, schedule: Q04DX003 (ip), vehicle: saline 94 % of control

CCCC(C)OC(=O)Nc1cccc(OC(=O)NC)c1 (stereo not given)
inactive: dose: 100.0 mg/kg/injection, schedule: Q04DX003 (ip), vehicle: saline with Tween-80 102 % of control | dose: 200.0 mg/kg/injection, schedule: Q04DX003 (ip), vehicle: saline with Tween-80 98 % of control | dose: 400.0 mg/kg/injection, schedule: Q04DX003 (ip), vehicle: saline with Tween-80 101 % of control

O=C(O)c1ccccc1N=Cc1ccccc1Cl
inactive: dose: 100.0 mg/kg/injection, schedule: Q04DX002 (ip), vehicle: saline with Tween-80 101 % of control | dose: 200.0 mg/kg/injection, schedule: Q04DX002 (ip), vehicle: saline with Tween-80 108 % of control | dose: 400.0 mg/kg/injection, schedule: Q04DX002 (ip), vehicle: saline with Tween-80 93 % of control

c1cc(-c2ncc[nH]2)ccn1
inactive: dose: 100.0 mg/kg/injection, schedule: Q01DX001 (ip), vehicle: saline with Tween-80 100 % of control

Cc1cc(C)c2c(c1)CC2N (stereo not given)
inactive: dose: 25.0 mg/kg/injection, schedule: Q04DX002 (ip), vehicle: Klucel (hydroxypropylcellulose) (HPC) 95 % of control | dose: 50.0 mg/kg/injection, schedule: Q04DX002 (ip), vehicle: Klucel (hydroxypropylcellulose) (HPC) 95 % of control | dose: 100.0 mg/kg/injection, schedule: Q04DX002 (ip), vehicle: Klucel (hydroxypropylcellulose) (HPC) 95 % of control and 103 % of control

O=c1c(CO)c[nH]cc1CO
inactive: [1] 101 % of control | [2] 103 % of control | [3] 107 % of control
